Experimental data taken from patent US11389414B2, “Methods for treating atherosclerosis with gamma-ketoaldehyde scavengers” (Vanderbilt University, priority 2017, dated 2022).

Experiments:
MDA-apoAI adducts = experiment: Plasma apoAI immunoprecipitation and western blotting for MDA-apoAI and apoAI; assay type: in vivo, mouse; details: western diet 16 weeks
Experimental: (§1) Mice: Ldlr^−/− and WT on C57BL/6 background mice were obtained from the Jackson Laboratory. Animal protocols were performed according to the regulations of Vanderbilt University's Institutional Animal Care and Usage Committee. Mice were maintained on chow or a Western-type diet containing 21% milk fat and 0.15% cholesterol (Teklad). Eight week old, female mice were pretreated mice with vehicle alone (Water) or containing either 1 g/L of 4-HOBA or 1 g/L of 2-HOBA. After two weeks, the mice continued to receive treatment and were administered a Western diet for 16 weeks to induce hypercholesterolemia and atherosclerosis.
Measurement of MDA-LDL, MDA-HDL, and MDA-ApoAI: Sandwich ELISA was used to measure plasma MDA-LDL and MDA-HDL levels following the manufacturer's instructions (Cell BioLabs, Inc.). Briefly, isolated LDL or HDL samples and MDA-HDL standards were added onto anti-MDA coated plates, and after blocking, the samples were incubated with biotinylated anti-apoB or anti-ApoAI primary antibody. The samples were then incubated for 1 h with streptavidin-enzyme conjugate and 15 min with substrate solution. After stopping the reaction, the O.D. was measured at 450 nm wavelength. MDA-ApoAI was detected in mouse plasma by immunoprecipitation of ApoAI and western blotting. Briefly, 50 μl of mouse plasma were prepared with 450 μL of IP Lysis Buffer (Pierce) plus 0.5% protease inhibitor mixture (Sigma), and immunoprecipitated with 10 μg of polyclonal antibody against mouse ApoAI (Novus). Then 25 μL of magnetic beads (Invitrogen) was added, and the mixture was incubated for 1 h at 4° C. with rotation. The magnetic beads were then collected, washed three times, and SDS-PAGE sample buffer with β-mercaptoethanol was added to the beads. After incubation at 70° C. for 5 min, magnetic field was applied to the Magnetic Separation Rack (New England), and the supernatant was used for detecting mouse ApoAI or MDA. For Western blotting, 30-60 μg of proteins was resolved by NuPAGE Bis-Tris electrophoresis (Invitrogen), and transferred onto nitrocellulose membranes (Amersham Bioscience). Membranes were probed with primary rabbit antibodies specific for ApoAI (Novus) or MDA (Cell signaling) and fluorescent tagged IRDye 680 (LI-COR) secondary antibody. Proteins were visualized and quantitated by Odyssey 3.0 Quantification software (LI-COR).

[1] = background statement; cited from earlier work
[2] = Body weight and plasma total cholesterol and triglyceride levels of treated mice; assay type: in vivo, mouse; details: compared to vehicle or 4-HOBA; data not shown
Experimental: as §1

[3] = tested on: MDA content of proximal aortic atherosclerotic lesions in Ldlr^−/− mice; experiment: MDA immunofluorescence of proximal aortic atherosclerotic lesions; assay type: in vivo, mouse
Experimental: as §1
(§2) Atherosclerosis Analyses and Cross-section Immunofluorescence Staining: The extent of atherosclerosis was examined both in Oil-Red-O-stained cross-sections of the proximal aorta and by en face analysis using the KS300 imaging system (Kontron Elektronik GmbH). For immunofluorescence staining, 5 μm cross-sections of the proximal aorta were fixed in cold acetone (Sigma), blocked in Background Buster (Innovex), incubated with indicated primary antibodies (MDA and CD68) at 4° C. for overnight. After incubation with fluorescent labeled secondary antibodies at 37 C for 1 hour, the nucleus was counter stained with Hoechst. Images were captured with a fluorescence microscope (Olympus IX81) and SlideBook 6 (Intelligent-Image) software and quantitated using ImageJ software (NIH).

[4] = tested on: atherosclerotic lesions of Ldlr^−/− mice; experiment: Masson's Trichrome staining of lesions (collagen content, fibrous cap thickness, necrotic core); assay type: in vivo, mouse
Experimental: as §1
Masson's Trichrome Staining: Masson's Trichrome Staining was applied for measurement of atherosclerotic lesion collagen content, fibrous cap thickness and necrotic core size following the manufacture's instruction (Sigma) and as previously described. Briefly, 5 μm cross-sections of proximal atherosclerotic aorta root were fixed with Bouin's solution, stained with hematoxylin for nuclei (black), biebrich scarlet and phosphotungstic/phosphomolybdic acid for cytoplasm (red), and aniline blue for collagen (blue). Images were captured and analyzed for collagen content, atherosclerotic cap thickness and necrosis core by ImageJ software as described earlier.

[5] = background statement; cited from earlier work; remark: listed apart in the source
[6] = tested on: hypercholesterolemic Ldlr^−/− mice; experiment: Atherosclerosis analysis (Oil-Red-O proximal aorta cross-sections and en face aorta) in western diet fed mice; assay type: in vivo, mouse; details: western diet 16 weeks; for reduction of atherosclerosis, en face analysis of the aorta / reduction of the extent of proximal aortic atherosclerosis: 1 g/L in water
Experimental: as §1, §2

MDA-HDL adducts = experiment: Plasma MDA-HDL sandwich ELISA; assay type: in vivo, mouse; details: western diet 16 weeks
Experimental: as §1
(§3) Measurement of MDA-LDL, MDA-HDL, and MDA-ApoAI: Sandwich ELISA was used to measure plasma MDA-LDL and MDA-HDL levels following the manufacturer's instructions (Cell BioLabs, Inc.). Briefly, isolated LDL or HDL samples and MDA-HDL standards were added onto anti-MDA coated plates, and after blocking, the samples were incubated with biotinylated anti-apoB or anti-ApoAI primary antibody. The samples were then incubated for 1 h with streptavidin-enzyme conjugate and 15 min with substrate solution. After stopping the reaction, the O.D. was measured at 450 nm wavelength. MDA-ApoAI was detected in mouse plasma by immunoprecipitation of ApoAI and western blotting. […] Proteins were visualized and quantitated by Odyssey 3.0 Quantification software (LI-COR).

macrophages = experiment: In vitro modification of LDL with MDA, then macrophage cholesterol content; assay type: cell-based; details: 2-HOBA present during LDL (5 mg/mL) modification with MDA (10 mM); versus vehicle; LDL with macrophages 24 h
Experimental: Modification of HDL and LDL with MDA: MDA was prepared immediately before use by rapid acid hydrolysis of maloncarbonyl bis-(dimethylacetal) as described. Briefly, 20 μL of 1 M HCl was added to 200 μL of maloncarbonyl bis-(dimethylacetal), and the mixture was incubated for 45 min at room temperature. The MDA concentration was determined by absorbance at 245 nm, using the coefficient factor 13, 700 M-1 cm-1. HDL (10 mg of protein/mL) and increasing doses of MDA (0, 0.125 mM, 0.25 mM, 0.5 mM, 1 mM) were incubated at 37° C. for 24 h in 50 mM sodium phosphate buffer (pH7.4) containing DTPA 100 μM. Reactions were initiated by adding MDA and stopped by dialysis of samples against PBS at 4° C. LDL (5 mg/mL) was modified in vitro with MDA (10 mM) in the presence of vehicle alone or with 2-HOBA at […] for 24 h in 50 mM sodium phosphate buffer (pH7.4) containing DTPA 100 μM. Reactions were initiated by adding MDA and stopped by dialysis of samples against PBS at 4° C. The LDL samples were incubated for 24 h with macrophages and the cholesterol content of the cells was measured using an enzymatic cholesterol assay as described.

peritoneal macrophages = experiment: Macrophage inflammatory response, real time PCR of IL-1β, IL-6, TNF-α mRNA; assay type: cell-based, mouse; details: oxidized LDL, 24 h
Experimental: (§4) Cell Culture: Peritoneal macrophages were isolated from mice 72 hours post injection of 3% thioglycollate and maintained in DMEM plus 10% fetal bovine serum (FBS, Gibco) as previously described. Human aortic endothelial cells (HAECs) were obtained from Lonza and maintained in endothelial cell basal medium-2 plus 1% FBS and essential growth factors (Lonza).
RNA Isolation and Real-Time RT-PCR: Total RNA was extracted and purified using Aurum Total RNA kit (Bio-Rad) according to the manufacturer's protocol. Complementary DNA was synthesized with iScript reverse transcriptase (Bio-Rad). Relative quantitation of the target mRNA was performed using specific primers, SYBR probe (Bio-Rad), and iTaqDNA polymerase (Bio-Rad) on IQ5 thermocylcer (Bio-Rad) and normalized with 18S, as described earlier. 18S, IL-1β and TNF-α primers used were as described earlier.

aortic endothelial cells = experiment: H2O2 induced apoptosis, Annexin V staining, endothelial cells; assay type: cell-based, mouse; details: 250 μM H2O2, 24 h; compared to vehicle or 4-HOBA
Experimental: as §4
(§5) In vitro Cellular Apoptosis and Analysis of Lesion Apoptosis and Efferocytosis: Cell apoptosis was induced as indicated and detected by fluorescent labeled Annexin V staining and quantitated by either Flow Cytometry (BD 5 LSRII) or counting Annexin V positive cells in images captured under a fluorescent microscope. The apoptotic cells in atherosclerotic lesion were measured by TUNEL staining of cross-sections of atherosclerotic proximal aorta as previously described. The TUNEL positive cells not associated with live macrophages were considered free apoptotic cells and macrophage-associated apoptotic cells were considered phagocytosed as a measure of lesion efferocytosis as previously described.

[7] = tested on: ApoE−/− macrophage foam cells; experiment: Capacity of HDL isolated from treated mice to reduce macrophage cholesterol; assay type: cell-based, mouse; details: HDL 25 μg protein/ml, 24 h
Experimental: as §1
HDL Isolation from Mouse Plasma and Measurement of HDL Capacity to Reduce Macrophage Cholesterol: HDL was isolated from mouse plasma using HDL Purification Kit (Cell BioLabs, Inc.) following the manufacturer's protocol. Briefly, apoB containing lipoproteins and HDL were sequentially precipitated with dextran sulfate. The HDL was then resuspended and washed. After removing the dextran sulfate, the HDL was dialyzed against PBS. To measure the capacity of the HDL to reduce macrophage cholesterol, apoE^−/− macrophages were cholesterol enriched by incubation for 48 h in DMEM containing 100 μg protein/ml of acetylated LDL. […] Cellular cholesterol was measured before and after incubation with HDL using an enzymatic cholesterol assay as described.

MDA-LDL adducts = experiment: Plasma MDA-LDL sandwich ELISA; assay type: in vivo, mouse; details: western diet 16 weeks
Experimental: as §1, §3

[8] = background statement; cited from earlier work; remark: listed apart in the source
primary macrophages = experiment: H2O2 induced apoptosis, Annexin V staining, macrophages; assay type: cell-based, mouse; details: 250 μM H2O2, 24 h; compared to vehicle or 4-HOBA
Experimental: as §4, §5

[9] = tested on: atherosclerotic lesions of Ldlr^−/− mice; experiment: Lesion apoptosis (TUNEL) and efferocytosis in proximal aorta sections; assay type: in vivo, mouse
Experimental: as §1, §5

[10] = in contrast to vehicle or 4-HOBA
[11] = summary value, compared to vehicle or 4-HOBA
[12] = compared to Ldlr−/− mice consuming a chow diet

SMILES: NCc1ccccc1O [2-HOBA, 2-hydroxybenzylamine]
- plasma MDA-apoAI adducts (MDA-apoAI adducts; [10]): dramatically reduced
- plasma apoAI levels (MDA-apoAI adducts; [10]): increased
- oral bioavailability [1]: orally bioavailable
- effect on body weight [2]: did not affect
- reduction of MDA levels in the proximal aorta ([3]; compared to 4-HOBA): 66.8%
- reduction of MDA levels in the proximal aorta ([3]; compared to vehicle alone): 68.5%
- increase of collagen content of the proximal aorta ([4]; compared to 4-HOBA): 2.6 fold
- increase of collagen content of the proximal aorta ([4]; compared to vehicle): 2.7 fold
- increased collagen content ([4]; summary value): 2.7 fold
- increased fibrous cap thickness ([4]; summary value): 2.1 fold
- reduction in necrotic core ([4]; summary value, p<0.01): 69%
- decrease of % necrotic area in the proximal aorta ([4]; versus 4-HOBA): 73.5%
- fibrous cap thickness, fold greater ([4]; versus 4-HOBA treated mice): 2.29 fold
- decrease of % necrotic area in the proximal aorta ([4]; versus vehicle): 74.8%
- fibrous cap thickness, fold greater ([4]; versus vehicle treated mice): 2.31 fold
- reaction with lipid monocarbonyls [5]: not with lipid monocarbonyls
- reduction of atherosclerosis, en face analysis of the aorta ([6]; compared to 4-HOBA): 59.1%
- reduction of the extent of proximal aortic atherosclerosis ([6]; compared to 4-HOBA): 31.5%
- reduction of atherosclerosis, en face analysis of the aorta ([6]; compared to vehicle): 60.3%
- reduction of the extent of proximal aortic atherosclerosis ([6]; compared to vehicle): 31.1%
- decrease of atherosclerosis in en face aortas [6, 11]: 60%
- decrease of atherosclerosis in the proximal aortas [6, 11]: 31%
- reduction of plasma MDA-HDL levels (MDA-HDL adducts; compared to 4-HOBA): 56%
- reduction of plasma MDA-HDL levels (MDA-HDL adducts; compared to vehicle): 57%
- ability of MDA modified LDL to increase cholesterol accumulation in macrophages (macrophages): reduced
- IL-1β mRNA level (peritoneal macrophages): significantly reduced
- IL-6 mRNA level (peritoneal macrophages): significantly reduced
- TNF-α mRNA level (peritoneal macrophages): significantly reduced
- number of apoptotic cells in endothelial cell cultures (aortic endothelial cells): markedly decreased
- efficiency of HDL from treated mice at reducing cholesterol stores in macrophage foam cells, fold ([7]; versus 4-HOBA treated mice): 1.7 fold
- efficiency of HDL from treated mice at reducing cholesterol stores in macrophage foam cells, fold ([7]; versus vehicle treated mice): 2.2 fold
- reduction of plasma MDA-LDL levels (MDA-LDL adducts; compared to 4-HOBA): 54%
- reduction of plasma MDA-LDL levels (MDA-LDL adducts; compared to vehicle): 57%
- reaction with lipid dicarbonyls (dicarbonyl scavenger) [8]: rapidly reacts
- number of apoptotic cells in macrophage cultures (primary macrophages): markedly decreased
- number of TUNEL positive cells not associated with macrophages, fold increase (efferocytosis) ([9]; 4-HOBA treated mice versus 2-HOBA treated mice): 2.0 fold
- reduction of the number of TUNEL positive cells in the proximal aortic lesion ([9]; compared to 4-HOBA): 72.4%
- reduction of the number of TUNEL positive cells in the proximal aortic lesion ([9]; compared to vehicle): 72.9%
- reduction of the number of atherosclerotic lesion TUNEL positive cells ([9]; summary value, compared to 4-HOBA or vehicle treated mice): 72%
- number of TUNEL positive cells not associated with macrophages, fold increase (efferocytosis) ([9]; vehicle treated mice versus 2-HOBA treated mice): 1.9 fold

SMILES: NCc1ccc(O)cc1 [4-HOBA, 4-hydroxybenzylamine, reference compound]
- plasma apoAI levels (MDA-apoAI adducts; [12]): reduced
- plasma levels of MDA-apoAI (MDA-apoAI adducts; [12]): markedly increased
- oral bioavailability [1]: orally bioavailable
- atheroprotection ([6]; Ldlr−/− mice): not atheroprotective
- reaction with lipid dicarbonyls (dicarbonyl scavenger) [8]: ineffective
